According to paper PMC5882690, “Mechanical characteristics of beta sheet-forming peptide hydrogels are dependent on peptide sequence, concentration and buffer composition” (Royal Society Open Science, 2018):
Where a SMILES comes first, the peptide text is derived from it. [ ]: non-standard residue; d: D form. Orn = NCCC[C@H](N)C(=O)O

Columns and labels:
[1] = cited from earlier work
Source text: The topographical structure of SAP hydrogels is important for the three-dimensional arrangement of cells within scaffolds. Zhang et al. state that the fibres of SAP hydrogels resemble the nanometre scale of natural polymer networks and thus allow three-dimensional cell growth. […] (figure 1). […] Moreover, they observed the formation fibre entanglements with diameters of 30 nm. The phenomenon of fibril clustering was also reported by Zhang et al. for the peptides KFE8 and KLD12, characterized by a typical single fibre width of 7 nm and thicker diameters for the bundles of fibres.

[2] = target: T1, human neutrophil elastase (Homo sapiens, UniProt P08246); assay: SAP hydrogel degradation by human neutrophil elastase; assay type: in vitro ADME; details: human neutrophil elastase 100 µg ml^-1 (86 units ml^-1) in PBS, 37°C, 5% CO2, 20 mg ml^-1 P11-4, 15 mg ml^-1 others, Qubit Protein Assay, mean ± SD, n = 3
T1 construct: purchased Innovative Research, USA
T1 sequence (P08246 30-267): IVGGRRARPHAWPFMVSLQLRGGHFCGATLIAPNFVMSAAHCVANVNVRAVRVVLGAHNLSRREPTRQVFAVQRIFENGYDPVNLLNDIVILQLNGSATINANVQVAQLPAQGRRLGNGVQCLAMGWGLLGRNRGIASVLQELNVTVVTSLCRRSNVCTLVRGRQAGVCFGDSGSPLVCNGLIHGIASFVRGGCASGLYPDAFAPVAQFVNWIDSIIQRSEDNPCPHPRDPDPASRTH
Description: SAP hydrogel dissolution and degradation properties of the peptides in the presence and absence of neutrophilic elastase and microorganisms were measured by determining the peptide content of the supernatant. Therefore, SAPs were assembled in PBS at concentrations of 20 mg ml^−1 for P11-4 and 15 mg ml^−1 for P11-8, P11-13/14 and P11-28/29. The assay was performed in a 96-well plate with gel volumes of 100 µl well^−1. 86 units ml^−1 elastase (Innovative Research, USA) (100 µg ml^−1) were added to the assembled peptides in PBS solution. After 24 h incubation at 37°C and 5% CO2, 10 µl of the supernatant was sterilely removed after 24 and 168 h and measured indirectly by monomeric peptide concentration in the supernatant using the Qubit® Protein Assay (Q33211; Thermo Fisher; fluorescence at 485/590 nm) and transferred back for the remainder of the experiment allowing peptide hydrogel degradation measurement without disturbing the hydrogel to buffer fluid balance. The measurements are based on the fact that degraded peptides cause disassembly of the fibrils, as assembly rules are no longer given, resulting in an increase in monomeric SAP in solution. SAP concentrations were calculated based on respective peptide standard curves. For data analysis, SAP concentrations measured in the supernatant were calculated as a percentage of the specific starting concentrations of each peptide system. Statistical analysis was done using a two-way ANOVA followed by Sidak's multiple comparison test.

KLD12 [reference compound]
typical single fibre width ([1]; literature): 7 nm

RADA16 [reference compound]
fibre diameter ([1]; literature value): approximately 10 nm

CC(=O)N[C@@H](CCC(N)=O)C(=O)N[C@@H](CCC(N)=O)C(=O)N[C@@H](CCCNC(=N)N)C(=O)N[C@@H](Cc1ccccc1)C(=O)N[C@@H](CCCN)C(=O)N[C@@H](Cc1c[nH]c2ccccc12)C(=O)N[C@@H](CCCN)C(=O)N[C@@H](Cc1ccccc1)C(=O)N[C@@H](CCC(=O)O)C(=O)N[C@@H](CCC(N)=O)C(=O)N[C@@H](CCC(N)=O)C(N)=O [P11-8, CH3CO-QQRFOWOFEQQ-NH2] (Ac-QQRF[Orn]W[Orn]FEQQ-NH2)
relative peptide amount in supernatant (% of peptide starting concentration) ([2]; 1 d): 10.4± 3.9%
relative peptide amount in supernatant (% of peptide starting concentration) ([2]; 7 d): 10.4± 1.3%
